From patent publication US20230203098A1, “HUMAN TRANSFERRIN RECEPTOR BINDING PEPTIDE” (priority 2020, published 2023)
Read-outs that look alike come from different tables or passages of the source. Where a SMILES comes first, the peptide text is derived from it. Bridges are numbered along the chain shown (N, C = ends). [ ]: non-standard residue; d: D form. PEG12 = NCCOCCOCCOCCOCCOCCOCCOCCOCCOCCOCCOCCOCCC(=O)O; NMePhe(3-Cl) = CN[C@@H](Cc1cccc(Cl)c1)C(=O)O; NMeW = CN[C@@H](Cc1c[nH]c2ccccc12)C(=O)O; Phe(4-F) = N[C@@H](Cc1ccc(F)cc1)C(=O)O; NMeY = CN[C@@H](Cc1ccc(O)cc1)C(=O)O; NMeF = CN[C@@H](Cc1ccccc1)C(=O)O; PEG4 = NCCOCCOCCOCCOCCC(=O)O; hLys = NCCCCC[C@H](N)C(=O)O

Target: transferrin receptor (hTfR) (Homo sapiens, UniProt P02786)
Test: Intermolecular interaction evaluation test between transferrin receptor (hTfR) and peptide by surface plasmon resonance (SPR)
Assay type: binding
How it was run: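 Receptor was Ni-captured and EDC/NHS-fixed on an NTA chip; running buffer HEPES pH 8.0 with NaCl, Tween 20, BSA and 1.0% DMSO.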

[1] = SPR, hTfR No. 894 variants with PEG12c linker (Table 2), read-out: KD
[2] = hTfR binding by SPR, hTfR No. 894 variant peptides, linker-added peptides and payload conjugates (Table 2), read-out: KD value obtained from the SPR measurement
[3] = surface plasmon resonance, peptide vs hTfR, read-out: KD value, hTfR binding by SPR (class symbol)
[4] = surface plasmon resonance, hTfR, read-out: KD value for hTfR by SPR (class symbol)

transferrin receptor (hTfR), sequence (P02786 whole entry): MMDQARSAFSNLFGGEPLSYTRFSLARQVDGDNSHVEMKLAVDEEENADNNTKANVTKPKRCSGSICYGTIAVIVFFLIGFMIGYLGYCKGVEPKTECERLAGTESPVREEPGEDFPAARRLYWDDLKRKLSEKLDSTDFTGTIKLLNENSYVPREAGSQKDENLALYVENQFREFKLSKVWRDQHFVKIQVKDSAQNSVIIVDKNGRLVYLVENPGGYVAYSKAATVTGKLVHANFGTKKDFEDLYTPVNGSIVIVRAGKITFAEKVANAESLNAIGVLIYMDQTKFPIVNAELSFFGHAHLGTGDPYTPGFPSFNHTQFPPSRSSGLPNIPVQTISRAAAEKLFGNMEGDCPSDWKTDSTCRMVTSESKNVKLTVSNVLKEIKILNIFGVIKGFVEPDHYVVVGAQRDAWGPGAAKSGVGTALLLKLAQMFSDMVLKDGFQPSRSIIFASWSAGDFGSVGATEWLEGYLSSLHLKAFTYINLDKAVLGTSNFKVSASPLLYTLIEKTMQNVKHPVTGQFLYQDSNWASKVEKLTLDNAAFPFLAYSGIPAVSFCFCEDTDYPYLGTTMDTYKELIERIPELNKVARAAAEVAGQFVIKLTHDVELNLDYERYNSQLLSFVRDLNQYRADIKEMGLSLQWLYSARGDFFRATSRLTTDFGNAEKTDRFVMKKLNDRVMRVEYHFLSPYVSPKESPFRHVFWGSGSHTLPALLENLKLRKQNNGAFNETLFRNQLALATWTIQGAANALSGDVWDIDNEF

CC[C@H](C)[C@@H]1NC(=O)[C@H](Cc2ccc(O)cc2)NC(=O)[C@H](Cc2ccc(O)cc2)NC(=O)[C@H](CC(N)=O)NC(=O)[C@H](Cc2ccc(F)cc2)NC(=O)[C@H](C(C)C)NC(=O)[C@H](Cc2ccccc2)N(C)C(=O)[C@H](C(C)C)NC(=O)[C@H](C)NC(=O)CSC[C@@H](C(=O)NCCOCCOCCOCCOCCOCCOCCOCCOCCOCCOCCOCCOCCC(N)=O)NC(=O)[C@H](Cc2ccc(O)cc2)N(C)C(=O)[C@H](Cc2ccc(O)cc2)NC(=O)[C@H](CCCNC(=N)N)NC(=O)[C@H](CCCNC(=N)N)NC(=O)[C@H]([C@@H](C)CC)NC1=O [compound 119] ({CH2CO}-AV[NMeF]V[Phe(4-F)]NYYIIRRY[NMeY]C[PEG12]-NH2; thioether N-15)
Kd [1]: 1 to 100 nM

CC[C@H](C)[C@@H]1NC(=O)[C@H](Cc2ccc(O)cc2)NC(=O)[C@H](Cc2ccc(O)cc2)NC(=O)[C@H](CC(N)=O)NC(=O)[C@H](Cc2c[nH]c3ccccc23)NC(=O)[C@H](C(C)C)NC(=O)[C@H](Cc2ccccc2)N(C)C(=O)[C@H](C(C)C)NC(=O)[C@H](C)NC(=O)CSC[C@@H](C(=O)NCC(=O)NCC(=O)N[C@@H](CO)C(=O)NCC(=O)N[C@@H](CO)C(=O)N[C@@H](CO)C(=O)NCC(=O)NCC(=O)N[C@@H](CO)C(=O)NCC(=O)N[C@@H](CO)C(=O)N[C@@H](CO)C(=O)N[C@@H](CCCCNC(=O)C2CCC(CN3C(=O)C=CC3=O)CC2)C(N)=O)NC(=O)[C@H](Cc2ccc(O)cc2)N(C)C(=O)[C@H](Cc2ccc(O)cc2)NC(=O)[C@H](CCCNC(=N)N)NC(=O)[C@H](CCCNC(=N)N)NC(=O)[C@H]([C@@H](C)CC)NC1=O (stereo partly shown) [compound 196]
Kd [2]: 1 to 100 nM

CC[C@H](C)[C@@H]1NC(=O)[C@H](Cc2ccc(OC)cc2)NC(=O)[C@H](Cc2ccc(O)cc2)NC(=O)[C@H](CC(N)=O)NC(=O)[C@H](Cc2c[nH]c3ccccc23)N(C)C(=O)[C@H](C(C)C)NC(=O)[C@H](Cc2cccc(Cl)c2)N(C)C(=O)[C@H](C(C)C)NC(=O)[C@H](C)NC(=O)CSC[C@@H](C(=O)NCCOCCOCCOCCOCCC(N)=O)NC(=O)[C@H](Cc2ccc(O)cc2)N(C)C(=O)[C@H](Cc2ccccc2)NC(=O)[C@@H](CCCNC(=N)N)NC(=O)[C@H](CCCNC(=N)N)NC(=O)[C@H](CCCCCN)NC1=O [compound 339] ({CH2CO}-AV[NMePhe(3-Cl)]V[NMeW]NYY(Me)I[hLys]R[dR]F[NMeY]C[PEG4]-NH2; thioether N-15)
Kd [3]: 1 to 100 nM

CC[C@H](C)[C@@H]1NC(=O)[C@H](Cc2ccc(OC)cc2)NC(=O)[C@H](Cc2ccc(O)cc2)NC(=O)[C@H](CC(N)=O)NC(=O)[C@H](Cc2c[nH]c3ccccc23)N(C)C(=O)[C@H](C(C)C)NC(=O)[C@H](Cc2cccc(Cl)c2)N(C)C(=O)[C@H](C(C)C)NC(=O)[C@H](C)NC(=O)CSC[C@@H](C(N)=O)NC(=O)[C@H](Cc2ccc(O)cc2)N(C)C(=O)[C@H](Cc2ccccc2)NC(=O)[C@@H](CCCNC(=N)N)NC(=O)[C@H](CCCNC(=N)N)NC(=O)[C@H](CCC(=O)N[C@H](CCC(=O)O)C(=O)O)NC1=O [compound 347] ({CH2CO}-AV[NMePhe(3-Cl)]V[NMeW]NYY(Me)IE(dE)R[dR]F[NMeY]C-NH2; thioether N-15)
Kd [3]: 1 to 100 nM

CC[C@H](C)[C@@H]1NC(=O)[C@H](Cc2ccc(OC)cc2)NC(=O)[C@H](Cc2ccc(O)cc2)NC(=O)[C@H](CC(N)=O)NC(=O)[C@H](Cc2c[nH]c3ccccc23)N(C)C(=O)[C@H](C(C)C)NC(=O)[C@H](Cc2cccc(Cl)c2)N(C)C(=O)[C@H](C(C)C)NC(=O)[C@H](C)NC(=O)CSC[C@@H](C(N)=O)NC(=O)[C@H](Cc2ccc(O)cc2)N(C)C(=O)[C@H](CCC(=O)NCCCC[C@@H](NC)C(=O)O)NC(=O)[C@@H](CCCNC(=N)N)NC(=O)[C@H](CCCNC(=N)N)NC(=O)[C@H]([C@@H](C)CC)NC1=O [compound 390]
Kd [4]: 1 to 100 nM

CC[C@H](C)[C@@H]1NC(=O)[C@H](Cc2ccc(O)cc2)NC(=O)[C@H](Cc2ccc(O)cc2)NC(=O)[C@H](CC(N)=O)NC(=O)[C@H](Cc2c[nH]c3ccccc23)NC(=O)[C@H](C(C)C)NC(=O)[C@H](Cc2ccccc2)N(C)C(=O)[C@H](C(C)C)NC(=O)[C@H](C)NC(=O)CSC[C@@H](C(=O)NCCOCCOCCOCCOCCOCCOCCOCCOCCOCCOCCOCCOCCC(N)=O)NC(=O)[C@H](Cc2ccc(O)cc2)N(C)C(=O)[C@H](Cc2ccc(O)cc2)NC(=O)[C@H](CCCNC(=N)N)NC(=O)[C@H](CCCNC(=N)N)NC(=O)[C@H](Cc2ccc(O)cc2)NC1=O [compound 115] ({CH2CO}-AV[NMeF]VWNYYIYRRY[NMeY]C[PEG12]-NH2; thioether N-15)
Kd [1]: 1 to 100 nM

CC[C@H](C)[C@@H]1NC(=O)[C@H](Cc2ccc(OC)cc2)NC(=O)[C@H](Cc2ccc(O)cc2)NC(=O)[C@H](CC(N)=O)NC(=O)[C@H](Cc2c[nH]c3ccccc23)N(C)C(=O)[C@H](C(C)C)NC(=O)[C@H](Cc2cccc(Cl)c2)N(C)C(=O)[C@H](CN)NC(=O)[C@H](C)NC(=O)CSC[C@@H](C(=O)NCC(=O)NCC(=O)NCC(=O)NCC(=O)N[C@@H](CO)C(=O)N[C@@H](CO)C(=O)N[C@@H](CS)C(N)=O)NC(=O)[C@H](Cc2ccc(O)cc2)N(C)C(=O)[C@H](Cc2ccccc2)NC(=O)[C@@H](CCCNC(=N)N)NC(=O)[C@H](CCCNC(=N)N)NC(=O)[C@H]([C@@H](C)CC)NC1=O [compound 239]
Kd: 1 to 100 nM

CC[C@H](C)[C@@H]1NC(=O)[C@H](Cc2ccc(OC)cc2)NC(=O)[C@H](Cc2ccc(O)cc2)NC(=O)[C@H](CC(N)=O)NC(=O)[C@H](Cc2c[nH]c3ccccc23)N(C)C(=O)[C@H](C(C)C)NC(=O)[C@H](Cc2cccc(Cl)c2)N(C)C(=O)[C@H](C(C)C)NC(=O)[C@H](C)NC(=O)CSC[C@@H](C(N)=O)NC(=O)[C@H](Cc2ccc(O)cc2)N(C)C(=O)[C@H](Cc2ccccc2)NC(=O)[C@@H](C)NC(=O)[C@H](CCCCN)NC(=O)[C@H]([C@@H](C)CC)NC1=O [compound 372]
Kd [4]: 1 to 100 nM

CC[C@H](C)[C@@H]1NC(=O)[C@H](Cc2ccc(O)cc2)NC(=O)[C@H](Cc2ccc(O)cc2)NC(=O)[C@H](CC(N)=O)NC(=O)[C@H](Cc2c[nH]c3ccccc23)NC(=O)[C@H](C(C)C)NC(=O)[C@H](Cc2ccccc2)N(C)C(=O)[C@H](C(C)C)NC(=O)[C@H](C)NC(=O)CSC[C@@H](C(=O)NCC(=O)NCC(=O)N[C@@H](CCCCNC(=O)C2CCC(CN3C(=O)C=CC3=O)CC2)C(N)=O)NC(=O)[C@H](Cc2ccc(O)cc2)N(C)C(=O)[C@H](Cc2ccc(O)cc2)NC(=O)[C@H](CCCNC(=N)N)NC(=O)[C@H](CCCNC(=N)N)NC(=O)[C@H]([C@@H](C)CC)NC1=O (stereo partly shown) [compound 195]
Kd [2]: 1 to 100 nM

CC[C@H](C)[C@@H]1NC(=O)[C@H](Cc2ccc(O)cc2)NC(=O)[C@H](Cc2ccc(O)cc2)NC(=O)[C@H](CC(N)=O)NC(=O)[C@H](Cc2c[nH]c3ccccc23)NC(=O)[C@H](C(C)C)NC(=O)[C@H](Cc2ccccc2)NC(=O)[C@H](C(C)C)NC(=O)[C@H](C)NC(=O)CSC[C@@H](C(N)=O)NC(=O)[C@H](Cc2ccc(O)cc2)N(C)C(=O)[C@H](Cc2ccc(O)cc2)NC(=O)[C@H](CCCNC(=N)N)NC(=O)[C@H](CCCCN)N(C)C(=O)[C@H]([C@@H](C)CC)NC1=O [compound 254]
Kd (binding to hTfR by SPR, Table 2 peptides, read-out: KD value (SPR) class): 1 to 100 nM
